Data: patent publication EP4603105A1, “PHARMACEUTICAL COMPOSITION CONTAINING CYCLIC COMPOUND HAVING SELECTIVE KRAS INHIBITORY EFFECT AGAINST HRAS AND NRAS” (CHUGAI SEIYAKU KABUSHIKI KAISHA, priority 2022, dated 2024)

Experiments:
[1] = test system: human lung cancer strain NCI-H441; type: cell-based
Method in brief: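 Step one: dispense the test compound in serial DMSO dilutions. Step three: add the reagent and measure […].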

HRAS wild-type protein = HRAS wild-type protein (Homo sapiens, UniProt P01112); test: Binding to HRAS by surface plasmon resonance (SPR), KD and KD ratio to KRAS; settings: ratio of KD with respect to HRAS wild-type protein to KD with respect to KRAS
Method in brief: (§1)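 Biotinylated GDP-bound RAS was captured at about 100–300 RU. Running buffer: HBS pH 7.4, 10 mM MgCl2, 10 µM GDP, 1 mM DTT, 0.01% Tween 20, 4% DMSO.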

[2] = molecular target: GDP-bound NRAS wild-type protein (Homo sapiens, UniProt P01111); test: Binding to NRAS by surface plasmon resonance (SPR), KD and KD ratio to KRAS; settings: ratio of KD with respect to GDP-bound NRAS wild-type protein to KD with respect to KRAS
Method in brief: as §1

HRAS wild-type protein, sequence (P01112 whole entry): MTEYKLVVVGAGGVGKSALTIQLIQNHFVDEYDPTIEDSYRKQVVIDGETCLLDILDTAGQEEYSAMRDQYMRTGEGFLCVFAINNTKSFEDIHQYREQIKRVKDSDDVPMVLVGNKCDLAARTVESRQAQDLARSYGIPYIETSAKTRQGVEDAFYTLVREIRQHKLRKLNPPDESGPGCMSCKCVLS
GDP-bound NRAS wild-type protein, sequence (P01111 whole entry): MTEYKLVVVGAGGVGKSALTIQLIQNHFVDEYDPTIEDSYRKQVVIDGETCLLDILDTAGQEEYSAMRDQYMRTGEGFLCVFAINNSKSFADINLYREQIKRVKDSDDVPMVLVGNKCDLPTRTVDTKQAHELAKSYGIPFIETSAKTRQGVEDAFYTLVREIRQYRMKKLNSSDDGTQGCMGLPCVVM

CCO[C@@H]1C[C@H]2C(=O)NC3(CCC3)C(=O)N(C)[C@@H](C3CCCC3)C(=O)N(C)[C@H](C(=O)N(CC)CC)CC(=O)N(C)[C@@H](C)C(=O)N[C@@H]([C@@H](C)CC)C(=O)N(C)CC(=O)N(C)[C@H]3C/C=C\CCN(C3=O)[C@@H](Cc3ccc(C(F)(F)F)cc3)C(=O)N(C)CC(=O)N[C@@H](CCc3cc(F)c(C(F)(F)F)c(F)c3)C(=O)N2C1 [PP1308]
IC50 [1]: 10.9 nM
HRAS /KRAS (HRAS wild-type protein): A (a compound having 10 or more and less than 20 is denoted as A)
NRAS /KRAS [2]: A (a compound having 10 or more and less than 20 is denoted as A)

CCC[C@H]1C(=O)N[C@@H]([C@@H](C)CC)C(=O)N(C)CC(=O)N(C)[C@H]2C/C=C\CCN(C2=O)[C@@H](Cc2ccc(C(F)(F)F)cc2)C(=O)N(C)CC(=O)N[C@@H](CCc2cc(F)c(C(F)(F)F)c(F)c2)C(=O)N2C[C@H](OCC)C[C@H]2C(=O)NC2(CCC2)C(=O)N(C)[C@@H](C2CCCC2)C(=O)N(C)[C@H](C(=O)N(CC)CC)CC(=O)N1C [PP1310]
IC50 [1]: 4.5 nM
HRAS /KRAS (HRAS wild-type protein): A (a compound having 10 or more and less than 20 is denoted as A)
NRAS /KRAS [2]: AA (a compound having 20 or more is denoted as AA)

CCC[C@H]1C(=O)N[C@@H]([C@@H](C)CC)C(=O)N(C)CC(=O)N(C)[C@H]2C/C=C\CCN(C2=O)[C@@H](Cc2ccc(C(F)(F)F)cc2)C(=O)N(C)CC(=O)N[C@@H](CCc2cc(F)c(C(F)(F)F)c(F)c2)C(=O)N2C[C@H](OCC)C[C@H]2C(=O)NC2(CCC2)C(=O)N(C)[C@@H](C2CCCC2)C(=O)N(C)[C@H](C(=O)N2CC3CCC(C2)O3)CC(=O)N1C [PP1315]
IC50 [1]: 34.5 nM
HRAS /KRAS (HRAS wild-type protein): A (a compound having 10 or more and less than 20 is denoted as A)
NRAS /KRAS [2]: AA (a compound having 20 or more is denoted as AA)

CCO[C@@H]1C[C@H]2C(=O)NC3(CCC3)C(=O)N(C)[C@@H](C3CCCC3)C(=O)N(C)[C@H](C(=O)N(C)CCOC)CC(=O)N(C)[C@@H](CC)C(=O)N[C@@H]([C@@H](C)CC)C(=O)N(C)CC(=O)N(C)[C@H]3C/C=C\CCN(C3=O)[C@@H](Cc3ccc(C(F)(F)F)cc3)C(=O)N(C)CC(=O)N[C@@H](CCc3cc(F)c(C(F)(F)F)c(F)c3)C(=O)N2C1 [PP1316]
IC50 [1]: 13.2 nM
HRAS /KRAS (HRAS wild-type protein): A (a compound having 10 or more and less than 20 is denoted as A)
NRAS /KRAS [2]: A (a compound having 10 or more and less than 20 is denoted as A)

CCO[C@@H]1C[C@H]2C(=O)NC3(CCC3)C(=O)N(C)[C@@H](C3CCCC3)C(=O)N(C)[C@H](C(=O)N(C)CCOC)CC(=O)N(C)[C@@H](CC(C)C)C(=O)N[C@@H]([C@@H](C)CC)C(=O)N(C)CC(=O)N(C)[C@H]3C/C=C\CCN(C3=O)[C@@H](Cc3ccc(C(F)(F)F)cc3)C(=O)N(C)CC(=O)N[C@@H](CCc3cc(F)c(C(F)(F)F)c(F)c3)C(=O)N2C1 [PP1317]
IC50 [1]: 7.6 nM
HRAS /KRAS (HRAS wild-type protein): B (a compound having 3 or more and less than 10 is denoted as B)
NRAS /KRAS [2]: A (a compound having 10 or more and less than 20 is denoted as A)

CCO[C@@H]1C[C@H]2C(=O)NC3(CCC3)C(=O)N(C)[C@@H](C3CCCC3)C(=O)N(C)[C@H](C(=O)N(C)CCOC)CC(=O)N(C)[C@@H](CC3CC3)C(=O)N[C@@H]([C@@H](C)CC)C(=O)N(C)CC(=O)N(C)[C@H]3C/C=C\CCN(C3=O)[C@@H](Cc3ccc(C(F)(F)F)cc3)C(=O)N(C)CC(=O)N[C@@H](CCc3cc(F)c(C(F)(F)F)c(F)c3)C(=O)N2C1 [PP1318]
IC50 [1]: 11.5 nM
HRAS /KRAS (HRAS wild-type protein): A (a compound having 10 or more and less than 20 is denoted as A)
NRAS /KRAS [2]: A (a compound having 10 or more and less than 20 is denoted as A)

CCO[C@@H]1C[C@H]2C(=O)NC3(CCC3)C(=O)N(C)[C@@H](C3CCCC3)C(=O)N(C)[C@H](C(=O)N(C)CCOC)CC(=O)N(C)[C@@H](C)C(=O)N[C@@H]([C@@H](C)CC)C(=O)N(C)CC(=O)N(C)[C@H]3C/C=C\CCN(C3=O)[C@@H](Cc3ccc(C(F)(F)F)cc3)C(=O)N(C)CC(=O)N[C@@H](CCc3cc(F)c(C(F)(F)F)c(F)c3)C(=O)N2C1 [PP1319]
IC50 [1]: 57.5 nM
HRAS /KRAS (HRAS wild-type protein): B (a compound having 3 or more and less than 10 is denoted as B)
NRAS /KRAS [2]: A (a compound having 10 or more and less than 20 is denoted as A)

CCO[C@@H]1C[C@H]2C(=O)NC3(CCC3)C(=O)N(C)[C@@H](C3CCCC3)C(=O)N(C)[C@H](C(=O)N(C)CCOC)CC(=O)N(C)[C@@H](CC(F)F)C(=O)N[C@@H]([C@@H](C)CC)C(=O)N(C)CC(=O)N(C)[C@H]3C/C=C\CCN(C3=O)[C@@H](Cc3ccc(C(F)(F)F)cc3)C(=O)N(C)CC(=O)N[C@@H](CCc3cc(F)c(C(F)(F)F)c(F)c3)C(=O)N2C1 [PP1320]
IC50 [1]: 7.7 nM
HRAS /KRAS (HRAS wild-type protein): A (a compound having 10 or more and less than 20 is denoted as A)
NRAS /KRAS [2]: A (a compound having 10 or more and less than 20 is denoted as A)

CCO[C@@H]1C[C@H]2C(=O)NC3(CCC3)C(=O)N(C)[C@@H](C3CCCC3)C(=O)N(C)[C@H](C(=O)N(C)CCOC)CC(=O)N(C)[C@@H](CC)C(=O)N[C@@H]([C@@H](C)CC)C(=O)N(C)CC(=O)N(C)[C@H]3C/C=C\CCN(C3=O)[C@@H](Cc3ccc(C(F)(F)F)cc3)C(=O)N(C)CC(=O)N[C@@H](CCc3ccc(C(F)(F)F)c(OC)c3)C(=O)N2C1 [PP1321]
IC50 [1]: 13.9 nM
HRAS /KRAS (HRAS wild-type protein): B (a compound having 3 or more and less than 10 is denoted as B)
NRAS /KRAS [2]: A (a compound having 10 or more and less than 20 is denoted as A)

CCO[C@@H]1C[C@H]2C(=O)NC3(CCC3)C(=O)N(C)[C@@H](C3CCCC3)C(=O)N(C)[C@H](C(=O)N(C)CCOC)CC(=O)N(C)[C@@H](CC)C(=O)N[C@@H]([C@@H](C)CC)C(=O)N(C)CC(=O)N(C)[C@H]3C/C=C\CCN(C3=O)[C@@H](Cc3ccc(C(F)(F)F)cc3)C(=O)N(C)CC(=O)N[C@@H](CCc3ccc4sccc4c3)C(=O)N2C1 [PP1322]
IC50 [1]: 56.2 nM
HRAS /KRAS (HRAS wild-type protein): A (a compound having 10 or more and less than 20 is denoted as A)
NRAS /KRAS [2]: A (a compound having 10 or more and less than 20 is denoted as A)

CCO[C@@H]1C[C@H]2C(=O)NC3(CCC3)C(=O)N(C)[C@@H](C3CCCC3)C(=O)N(C)[C@H](C(=O)N(C)CCOC)CC(=O)N(C)[C@@H](CC(C)C)C(=O)N[C@@H]([C@@H](C)CC)C(=O)N(C)CC(=O)N(C)[C@H]3C/C=C\CCN(C3=O)[C@@H](Cc3ccc(C(F)(F)F)cc3)C(=O)N(C)CC(=O)N[C@@H](CCc3ccc(C(F)(F)F)c(OC)c3)C(=O)N2C1 [PP1324]
IC50 [1]: 4.4 nM
HRAS /KRAS (HRAS wild-type protein): A (a compound having 10 or more and less than 20 is denoted as A)
NRAS /KRAS [2]: A (a compound having 10 or more and less than 20 is denoted as A)

CCO[C@@H]1C[C@H]2C(=O)NC3(CCC3)C(=O)N(C)[C@@H](C3CCCC3)C(=O)N(C)[C@H](C(=O)N(C)CCOC)CC(=O)N(C)[C@@H](CC(C)C)C(=O)N[C@@H]([C@@H](C)CC)C(=O)N(C)CC(=O)N(C)[C@H]3C/C=C\CCN(C3=O)[C@@H](Cc3ccc(C(F)(F)F)cc3)C(=O)N(C)CC(=O)N[C@@H](CCc3ccc4sccc4c3)C(=O)N2C1 [PP1325]
IC50 [1]: 42.7 nM
HRAS /KRAS (HRAS wild-type protein): A (a compound having 10 or more and less than 20 is denoted as A)
NRAS /KRAS [2]: A (a compound having 10 or more and less than 20 is denoted as A)

CCO[C@@H]1C[C@H]2C(=O)NC3(CCC3)C(=O)N(C)[C@@H](C3CCCC3)C(=O)N(C)[C@H](C(=O)N(C)CCOC)CC(=O)N(C)[C@@H](CC(C)C)C(=O)N[C@@H]([C@@H](C)CC)C(=O)N(C)CC(=O)N(C)[C@H]3C/C=C\CCN(C3=O)[C@@H](Cc3ccc(C(F)(F)F)cc3)C(=O)N(C)CC(=O)N[C@@H](CCc3ccc(Cl)c(Cl)c3)C(=O)N2C1 [PP1326]
IC50 [1]: 23.1 nM
HRAS /KRAS (HRAS wild-type protein): A (a compound having 10 or more and less than 20 is denoted as A)
NRAS /KRAS [2]: AA (a compound having 20 or more is denoted as AA)

CCO[C@@H]1C[C@H]2C(=O)NC3(CCC3)C(=O)N(C)[C@@H](C3CCCC3)C(=O)N(C)[C@H](C(=O)N(C)CCOC)CC(=O)N(C)[C@@H](CC3CC3)C(=O)N[C@@H]([C@@H](C)CC)C(=O)N(C)CC(=O)N(C)[C@H]3C/C=C\CCN(C3=O)[C@@H](Cc3ccc(C(F)(F)F)cc3)C(=O)N(C)CC(=O)N[C@@H](CCc3ccc(C(F)(F)F)c(OC)c3)C(=O)N2C1 [PP1327]
IC50 [1]: 12.4 nM
HRAS /KRAS (HRAS wild-type protein): A (a compound having 10 or more and less than 20 is denoted as A)
NRAS /KRAS [2]: A (a compound having 10 or more and less than 20 is denoted as A)

CCO[C@@H]1C[C@H]2C(=O)NC3(CCC3)C(=O)N(C)[C@@H](C3CCCC3)C(=O)N(C)[C@H](C(=O)N(C)CCOC)CC(=O)N(C)[C@@H](CC3CC3)C(=O)N[C@@H]([C@@H](C)CC)C(=O)N(C)CC(=O)N(C)[C@H]3C/C=C\CCN(C3=O)[C@@H](Cc3ccc(C(F)(F)F)cc3)C(=O)N(C)CC(=O)N[C@@H](CCc3ccc4sccc4c3)C(=O)N2C1 [PP1328]
IC50 [1]: 134 nM
HRAS /KRAS (HRAS wild-type protein): A (a compound having 10 or more and less than 20 is denoted as A)
NRAS /KRAS [2]: A (a compound having 10 or more and less than 20 is denoted as A)
